From PMC9101087, “A Sensitive LC-MS/MS Method for the Simultaneous Determination of Two Thia-Analogous Indirubin N-Glycosides and Indirubin-3′-Monoxime in Plasma and Cell Culture Medium” (Molecules, 2022)

What was measured:
[1] = Storage stability in human plasma, LC-MS/MS after plasma precipitation; assay type: in vitro ADME; conditions: for Stability 4 °C / Stability AS (autosampler) / Stability −20 °C / Stability BT (benchtop): 24 h; for Stability FT (freeze-thaw): freeze-thaw cycles; for Stability BT (benchtop): room temperature
Method: (§1) To assess stability, low and high concentrations of all analytes were subjected to different storage conditions. […] For determination of long-term stability, samples were stored in either plasma or DMEM at –80 °C for 90 and 91 days, respectively. To measure short-term stability, samples were stored at room temperature, in an autosampler, at 4 °C, and at –20 °C for 24 h. In addition, freeze-thaw cycles were performed according to FDA guidance for the standard solutions. For comparison, at least three freshly prepared samples were prepared for each concentration level. With the exception of autosampler stability, the internal standard was always added to all samples before sample processing was started.
After mixing the 1.5 µM internal standard and the plasma sample, protein precipitation was commenced. Next, 190 µL of acetonitrile and 50 µL of 0.5 M sulfuric acid buffer were added. The tubes were then shaken at 1400 rpm for 5 min followed by centrifugation at 14,000 rpm for 5 min. Subsequently, 195 µL of the supernatant was transferred to an LC tube and analyzed.
(§2) To assess stability, low and high concentrations of all analytes were exposed to different storage conditions. To determine long-term stability, samples were stored in either plasma or DMEM at −80 °C for 90 and 91 days, respectively. To determine short-term stability, samples were stored for 24 h on the bench at room temperature, in the autosampler, at 4 °C, and at −20 °C. In addition, freeze-thaw cycles were performed for the standard solutions according to FDA guidance. At least three freshly prepared samples per concentration level were prepared for comparison. With the exception of the stability test in the autosampler, the internal standard was always added to all samples before sample processing was started. However, to avoid concentration fluctuations due to possible degradation of the analytes, stock solutions were prepared twice a week and stored at −20 °C. Each storage condition was examined in the dark. For all conditions studied, n = 3–6 replicates were prepared.

[2] = Storage stability in human plasma, LC-MS/MS after plasma extraction; assay type: in vitro ADME; conditions: for Stability 4 °C / Stability AS (autosampler) / Stability −20 °C / Stability BT (benchtop): 24 h; for Stability FT (freeze-thaw): freeze-thaw cycles; for Stability −80 °C 90 d: long-term freezing; for Stability BT (benchtop): room temperature
Method: as §1
(§3) Liquid-liquid extraction was performed identically for plasma and DMEM samples. After addition of the 1.0 µM internal standard, 50 µL of 0.8 M alkaline carbonate buffer was added. The extraction was performed once with 890 µL ethyl acetate. Tubes were then shaken for 10 min at 1400 rpm using a Thermomixer 5436 (Eppendorf AG, Hamburg, Germany) followed by centrifugation for 5 min at 14,000 rpm using a Centrifuge 5415 C (Eppendorf AG, Hamburg, Germany). Subsequently, 850 µL of the supernatant was transferred to a new tube and evaporated to dryness for 35 min at 35 °C (8 min heating time) using a SpeedVac SPD130DLX (Thermo Fisher Scientific, Asheville, NC, USA). Reconstitution was performed with 200 µL of a acetonitrile/water/H2SO4 [3/0.5/0.5] mixture, shaken at 1400 rpm for 5 min, and centrifuged again at 14,000 rpm for 5 min. Finally, 155 µL of the sample was transferred to an LC vial and analyzed.
as §2

[3] = Storage stability in DMEM, LC-MS/MS after DMEM extraction; assay type: physicochemical; conditions: for Stability 4 °C / Stability AS (autosampler) / Stability −20 °C / Stability BT (benchtop): 24 h; for Stability FT (freeze-thaw): freeze-thaw cycles; for Stability −80 °C 91 d: long-term freezing; for Stability BT (benchtop): room temperature
Method: as §1
Regarding the medium, validation procedures were performed with high-glucose DMEM supplemented with 100 U/mL penicillin and 100 μg/mL streptomycin, but not with FBS. With the exception of selectivity, where both media (GlutaMAX™-I or UltraGlutamine^TM I supplement) were tested, only Gibco™ DMEM with GlutaMAX™-I was used for all other analytical procedures.
as §3, §2

[4] = Storage stability in human plasma, LC-MS/MS after plasma precipitation; assay type: in vitro ADME; conditions: long-term freezing

| SMILES | Stability 4 °C ([1]; 2.0 nM) [%] | Stability AS (autosampler) ([1]; 2.0 nM) [%] | Stability −20 °C ([1]; 2.0 nM) [%] | Stability FT (freeze-thaw) ([1]; 2.0 nM) [%] | Stability BT (benchtop) ([1]; 2.0 nM) [%] | Stability 4 °C ([1]; 167 nM) [%] | Stability AS (autosampler) ([1]; 167 nM) [%] | Stability −20 °C ([1]; 167 nM) [%] | Stability FT (freeze-thaw) ([1]; 167 nM) [%] | Stability BT (benchtop) ([1]; 167 nM) [%] | Stability 4 °C ([2]; 3.0 nM) [%] | Stability AS (autosampler) ([2]; 3.0 nM) [%] | Stability −20 °C ([2]; 3.0 nM) [%] | Stability FT (freeze-thaw) ([2]; 3.0 nM) [%] | Stability −80 °C 90 d ([2]; 3.0 nM) [%] | Stability BT (benchtop) ([2]; 3.0 nM) [%] | Stability 4 °C ([2]; 250 nM) [%] | Stability AS (autosampler) ([2]; 250 nM) [%] | Stability −20 °C ([2]; 250 nM) [%] | Stability FT (freeze-thaw) ([2]; 250 nM) [%] | further results |
| --- | --- | --- | --- | --- | --- | --- | --- | --- | --- | --- | --- | --- | --- | --- | --- | --- | --- | --- | --- | --- | --- |
| O=C1/C(=C2/C(=O)N([C@@H]3O[C@H](CO)[C@@H](O)[C@H](O)[C@H]3O)c3ccccc32)Sc2ccccc21 [KD87, 3-[3′-oxo-benzo[b]thiophen-2′-(Z)-ylidene]-1-(β-D-glucopyranosyl)-oxindole] | 81.4 ± 3.1 | 105.7 ± 6.7 | 94.6 ± 2.8 | 98.8 ± 5.6 | 64.3 ± 5.6 | 84.5 ± 2.0 | 99.9 ± 4.8 | 92.6 ± 2.6 | 97.9 ± 4.1 | 75.0 ± 3.5 | 79.3 ± 2.4 | 80.8 ± 3.0 | 101.4 ± 3.4 | 98.3 ± 5.4 | 100.1 ± 8.4 | 64.4 ± 4.6 | 94.1 ± 5.6 | 73.7 ± 3.3 | 100.1 ± 0.7 | 99.7 ± 2.6 | Stability −80 °C 90 d ([2]; 250 nM): 100.9 ± 3.6%; Stability BT (benchtop) ([2]; 250 nM): 77.8 ± 2.7%; Stability 4 °C ([3]; 3.0 nM): 81.4 ± 3.3%; Stability AS (autosampler) ([3]; 3.0 nM): 101.2 ± 7.4%; Stability −20 °C ([3]; 3.0 nM): 87.7 ± 3.2%; Stability FT (freeze-thaw) ([3]; 3.0 nM): 98.3 ± 5.4%; Stability −80 °C 91 d ([3]; 3.0 nM): 97.8 ± 6.0%; Stability BT (benchtop) ([3]; 3.0 nM): 104.9 ± 4.0%; Stability 4 °C ([3]; 40 nM): 84.5 ± 2.1%; Stability AS (autosampler) ([3]; 40 nM): 81.7 ± 3.7%; Stability −20 °C ([3]; 40 nM): 84.2 ± 2.6%; Stability FT (freeze-thaw) ([3]; 40 nM): 101.9 ± 5.4%; Stability −80 °C 91 d ([3]; 40 nM): 92.3 ± 7.8%; Stability BT (benchtop) ([3]; 40 nM): 98.3 ± 1.1%; Stability −80 °C 91 d ([4]; 2.0 nM): 96.7 ± 8.6%; Stability −80 °C 91 d ([4]; 167 nM): 106.0 ± 1.4% |
| O=C1/C(=C2/C(=O)N([C@@H]3O[C@H](CO)[C@@H](O)[C@H](O)[C@@H]3O)c3ccccc32)Sc2ccccc21 [KD85, 3-[3′-oxo-benzo[b]thiophene-2′-(Z)-ylidene]-1-(β-D-mannopyranosyl)-oxindole] | 81.3 ± 3.4 | 97.6 ± 8.0 | 90.1 ± 5.7 | 107.9 ± 4.9 | 57.5 ± 4.1 | 85.5 ± 1.9 | 99.6 ± 4.1 | 96.3 ± 2.3 | 99.5 ± 3.8 | 70.3 ± 3.2 | 85.5 ± 2.2 | 71.8 ± 2.7 | 86.4 ± 3.5 | 99.4 ± 4.0 | 102.5 ± 5.2 | 64.4 ± 3.6 | 94.3 ± 5.7 | 73.1 ± 2.7 | 101.8 ± 3.2 | 99.1 ± 2.0 | Stability −80 °C 90 d ([2]; 250 nM): 101.7 ± 1.1%; Stability BT (benchtop) ([2]; 250 nM): 76.0 ± 2.6%; Stability 4 °C ([3]; 3.0 nM): 98.3 ± 2.2%; Stability AS (autosampler) ([3]; 3.0 nM): 75.6 ± 5.8%; Stability −20 °C ([3]; 3.0 nM): 86.8 ± 1.8%; Stability FT (freeze-thaw) ([3]; 3.0 nM): 99.4 ± 4.0%; Stability −80 °C 91 d ([3]; 3.0 nM): 93.2 ± 6.9%; Stability BT (benchtop) ([3]; 3.0 nM): 115.3 ± 1.8%; Stability 4 °C ([3]; 40 nM): 80.5 ± 1.8%; Stability AS (autosampler) ([3]; 40 nM): 71.6 ± 1.9%; Stability −20 °C ([3]; 40 nM): 81.9 ± 3.9%; Stability FT (freeze-thaw) ([3]; 40 nM): 99.9 ± 3.3%; Stability −80 °C 91 d ([3]; 40 nM): 92.7 ± 5.7%; Stability BT (benchtop) ([3]; 40 nM): 100.5 ± 1.9%; Stability −80 °C 91 d ([4]; 2.0 nM): 105.1 ± 12.4%; Stability −80 °C 91 d ([4]; 167 nM): 108.2 ± 3.7% |
